The results in this text go back to US5756462A, “Pore forming peptides from Geolycosa riogrande” (priority 1996, dated 1998).

Common to all, as to assay type: cell-based
For assay [1], the system named is HL-60 cells. Briefly: Mobilization of intracellular Ca2+ after pertussis toxin pretreatment. As to conditions: pretreatment 20 hrs with 100 ng/ml pertussis toxin. The procedure: Increases in [Ca^2+ ]i arising from the mobilization of intracellular Ca^2+ were inhibited by pretreatment for 20 hrs with 100 ng/ml pertussis toxin (PTx).
The subject of assay [2] is HL-60 cells differentiated with dibutryl cAMP. Briefly: Mobilization of intracellular Ca2+ in fura-2 loaded differentiated HL-60 cells. As to conditions: differentiated HL-60 cells loaded with fura-2. The procedure:
The three peptides of the present invention isolated from the venom of the spider Geolycosa riogrande, designated Geolycosa 17, 15a and 15b, contain linear sequences of 25 (Geolycosa 17) or 27 (Geolycosa 15a and 15b) amino acids, lack cysteine, and are enriched in lysine. […] When tested at concentrations of 0.5 to 2 μM, all three peptides caused rapid and transient increases in [Ca^2+ ]i that persisted in the absence of extracellular Ca^2+ but were blocked when cellular stores of Ca^2+ were depleted by pretreatment with ionomycin.

In assay [3] the test system is HL-60 cells. The procedure: Uke the effect of many other pore formers, the effects of these peptides on EB uptake were augmented when the total extracellular divalent cation concentration was reduced to 0.1 mM and inhibited when extracellular Mg^2+ was increased from 1 to 5 mM.
The ability of Geolycosa 17 to form pores in membranes was tested in T3 fibroblasts, parathyroid cells, and differentiated and undifferentiated HL60 cells. Pore formation was assessed by measuring the permeability of the cells to ethidium bromide (EB, MW 394). Concentrations of Geolycosa 17 greater than 7.5 μM increased EB uptake in all cells tested.

Entries after “also recorded” stand apart in the source; their conditions may differ.

As for `Nc1ncnc2c1ncn2[C@@H]1O[C@H](COP(=O)(O)OP(=O)(O)OP(=O)(O)O)[C@@H](O)[C@H]1O` [ATP, reference compound], the “effect of PTx pretreatment on mobilization of intracellular Ca2+” value (“effect of PTx pretreatment” for short) in assay [1] is listed as “blocked”.

What is called EC50 is the concentration at which the effect is half-maximal. Turning to `CC[C@H](C)[C@H](NC(=O)CN)C(=O)NCC(=O)N[C@@H](C)C(=O)N[C@H](C(=O)N[C@@H](CC(C)C)C(=O)N[C@@H](CCCCN)C(=O)N[C@H](C(=O)N[C@@H](CC(C)C)C(=O)N[C@H](C(=O)N[C@H](C(=O)NCC(=O)N[C@@H](CC(C)C)C(=O)N1CCC[C@H]1C(=O)N[C@@H](C)C(=O)N[C@@H](CC(C)C)C(=O)N[C@H](C(=O)N[C@@H](CO)C(=O)N[C@@H](Cc1c[nH]c2ccccc12)C(=O)N[C@H](C(=O)N[C@@H](CCCCN)C(=O)N[C@@H](CCCNC(=N)N)C(=O)N[C@@H](CCCCN)C(=O)N[C@@H](CCCNC(=N)N)C(=O)N[C@@H](CCC(N)=O)C(=O)N[C@@H](CCC(N)=O)C(N)=O)[C@@H](C)CC)[C@@H](C)CC)[C@@H](C)O)[C@@H](C)O)C(C)C)C(C)C` [melittin, reference compound], the “mobilization of intracellular Ca2+” value in assay [2] is given as “caused the mobilization of intracellular Ca^2+”. In addition, in assay [3], the “EB uptake / pore formation at concentrations effective in mobilizing intracellular Ca2+” value (shortened to “EB uptake / pore formation”) is reported as “caused significant pore formation”, the “permeabilization of cells indexed by uptake of ethidium bromide (EB)” value (from here on “permeabilization of cells indexed”) was “permeabilized HL-60 cells” and the “rank order of potency for causing permeabilization of HL-60 cells” value (“rank order of potency” below) is on record as “melittin>Geolycosa 15b>Geolycosa 17=Geolycosa 15a>mastoparan”. Moreover, the EC50 in assay [3] (EB uptake, read-out: EC50 for causing pore formation) is around 250 nM.

On to “Geolycosa 15a (KIKWLKAMKSIAKFIAKKQMKKHLGGE)”, for which the “mobilization of intracellular Ca2+” value in assay [2] is recorded as “mobilize intracellular Ca^2+”. In addition, in assay [3], the “EB uptake / pore formation” value is reported as “even less prone to cause increases in EB uptake”, the “permeabilization of cells indexed” value is recorded as “permeabilized cells”, the “potency relative to mastoparan” value is recorded as “about twice as potent” and the “rank order of potency” value is listed as “melittin>Geolycosa 15b>Geolycosa 17=Geolycosa 15a>mastoparan”. The “effect of PTx on pore formation” value in assay [3] (pertussis toxin pretreatment) was “without effect”. The “effect of PTx pretreatment” value in assay [1] is “blocks”.

Take “Geolycosa 15b (KIKWFKTMKSIAKFIAKEQMKKHLKGE)”: the “mobilization of intracellular Ca2+” value in assay [2] is on record as “mobilize intracellular Ca^2+; also recorded: caused the mobilization of intracellular Ca^2+”. In assay [3], the “EB uptake / pore formation” value is listed as “little uptake of EB”; the “EB uptake at slightly higher concentrations than those mobilizing Ca2+” value is “a large uptake of EB”; the “permeabilization of cells indexed” value is listed as “permeabilized cells”; the “potency relative to Geolycosa 15a and Geolycosa 17” value is listed as “about twice as potent”. Besides, the “rank order of potency” value in assay [3] is given as “melittin>Geolycosa 15b>Geolycosa 17=Geolycosa 15a>mastoparan”. For the same compound, in assay [1], the “effect of PTx pretreatment” value is reported as “failed to affect”.
